Experimental data from patent US20210246115A1 (Bioimics AB, priority 2017, published 2021).
Values after ≈ are worked out from the molar mass of the structure shown. Counter-ions that a name gives are not always drawn. Like-named read-outs stand apart in the source and are kept apart here.

Experiments:
[1] = test system: Enterococcus faecalis (ATCC29212); assay: MIC, broth microdilution (CLSI), Enterococcus faecalis; assay type: cell-based
[2] = test system: Pseudomonas aeruginosa (ATCC27853); assay: MIC, broth microdilution (CLSI), Pseudomonas aeruginosa; assay type: cell-based
[3] = test system: Staphylococcus aureus subsp. aureus (ATCC29213); assay: MIC, broth microdilution (CLSI), Staphylococcus aureus ATCC29213; assay type: cell-based; conditions: Staphylococcus aureus
[4] = test system: E. coli RNase P RNA, M1 RNA; assay: Inhibition of bacterial RNase P activity, IC50 determination (cleavage of pATSerUG by M1 RNA); assay type: biochemical; conditions: NI: No inhibition
[5] = test system: S. aureus MRSA ATCC 33591; assay: MIC, S. aureus MRSA ATCC 33591; assay type: cell-based; conditions: Staphylococcus aureus, read-out: S. aureus MRSA ATCC 33591 MIC
[6] = test system: S. aureus USA300 MRSA BAA-1717; assay: MIC, S. aureus USA300 MRSA BAA-1717; assay type: cell-based; conditions: Staphylococcus aureus, read-out: S. aureus USA300 MRSA BAA-1717 MIC
E. faecium ATCC 700221 = assay: MIC, E. faecium ATCC 700221; assay type: cell-based; conditions: Enterococcus faecium
S. pneumoniae ATCC 49619 = assay: MIC, S. pneumoniae ATCC 49619; assay type: cell-based; conditions: Streptococcus pneumoniae, ATCC49619; Table XIV A. Gram-positive bacteria
M. phlei ATCC 11758 = assay: MIC, M. phlei ATCC 11758; assay type: cell-based; conditions: Mycolicibacterium phlei, ATCC11758; Table XIV A. Gram-positive bacteria
M. fortuitum ATCC 110 = assay: MIC, M. fortuitum ATCC 110; assay type: cell-based; conditions: Mycolicibacterium fortuitum, ATCC110; Table XIV A. Gram-positive bacteria
[7] = test system: E. coli JW5503 (efflux defective); assay: MIC, E. coli JW5503 (efflux defective); assay type: cell-based; conditions: Escherichia coli, read-out: E. coli JW5503 (efflux defective) MIC
K. pneumoniae ATCC 43816 = assay: MIC, K. pneumoniae ATCC 43816; assay type: cell-based; conditions: Klebsiella pneumoniae, ATCC43816; Table XIV B. Gram-negative bacteria
H. influenzae ATCC 49247 = assay: MIC, H. influenzae ATCC 49247; assay type: cell-based; conditions: Haemophilus influenzae, ATCC49247; Table XIV B. Gram-negative bacteria
A. baumannii ATCC 17978 = assay: MIC, A. baumannii ATCC 17978; assay type: cell-based; conditions: Acinetobacter baumannii, ATCC17978; Table XIV B. Gram-negative bacteria
[8] = test system: P. aeruginosa NTUH974 (MDR); assay: MIC, P. aeruginosa NTUH974 (MDR); assay type: cell-based; conditions: Pseudomonas aeruginosa, read-out: P. aeruginosa NTUH974 (MDR) MIC
[9] = test system: N. gonorrhoeae ATCC 700825; assay: MIC, N. gonorrhoeae ATCC 700825; assay type: cell-based; conditions: Neisseria gonorrhoeae, ATCC700825; Table XIV B. Gram-negative bacteria
H. pylori ATCC 43504 = assay: MIC, H. pylori ATCC 43504; assay type: cell-based; conditions: Helicobacter pylori, ATCC43504; Table XIV B. Gram-negative bacteria
[10] = test system: Escherichia coli (ATCC25922); assay: MIC, broth microdilution (CLSI), Escherichia coli; conditions: Escherichia coli
[11] = test system: Staphylococcus aureus (ATCC25923); assay: MIC, broth microdilution (CLSI), Staphylococcus aureus ATCC25923; conditions: Staphylococcus aureus, ATCC25923, read-out: S. aureus ATCC 25923 MIC
[12] = ATCC25922, read-out: E. coli ATCC 25922 MIC, Table XIII
[13] = ATCC25922, read-out: E. coli ATCC 25922 MIC, Table XIV B. Gram-negative bacteria
[14] = ATCC29212, Table XIV A. Gram-positive bacteria, read-out: E. faecalis ATCC 29212 MIC
[15] = ATCC27853, Table XIV B. Gram-negative bacteria, read-out: P. aeruginosa ATCC 27853 MIC
[16] = ATCC29213, Table XIII, read-out: S. aureus ATCC 29213 MIC
[17] = ATCC29213, Table XIV A. Gram-positive bacteria, read-out: S. aureus ATCC 29213 MIC
[18] = Table XIV A. Gram-positive bacteria
[19] = ATCC700221, Table XIV A. Gram-positive bacteria, read-out: E. faecium ATCC 700221 MIC
[20] = Table XIV B. Gram-negative bacteria

| SMILES | IC50 [4] | MIC (S. pneumoniae ATCC 49619) | MIC (M. phlei ATCC 11758) | MIC (M. fortuitum ATCC 110) | MIC [7] | MIC (K. pneumoniae ATCC 43816) | MIC (H. influenzae ATCC 49247) | MIC (A. baumannii ATCC 17978) | MIC [9] | MIC (H. pylori ATCC 43504) | MIC [10, 12] | MIC [10, 13] | MIC [1, 14] | MIC [2, 15] | MIC [3, 16] | MIC [3, 17] | MIC [5, 18] | MIC [6, 18] | MIC (E. faecium ATCC 700221; [19]) | MIC [8, 20] | other results |
| --- | --- | --- | --- | --- | --- | --- | --- | --- | --- | --- | --- | --- | --- | --- | --- | --- | --- | --- | --- | --- | --- |
| N#Cc1ccc2c(c1)c(C(CCNCCCN)c1cccc(OC(F)(F)F)c1)cn2C1CCCCC1 (stereo not drawn) [Compound 372, 3-(3-((3-aminopropyl)amino)-1-(3-(trifluoromethoxy)phenyl)propyl)-1-cyclohexyl-1H-indole-5-carbonitrile, dihydrochloride salt] | 9.1 µM | 8 µg/mL | 4 µg/mL | 4 µg/mL | 2 µg/mL | 2 µg/mL | 4 µg/mL | 4 µg/mL | 4 µg/mL | 16 µg/mL | 4 µg/mL | 2 µg/mL | – | – | – | – | – | – | – | – | MIC ([1]; ATCC29212, read-out: E. faecalis ATCC 29212 MIC): 2 µg/mL; MIC ([2]; ATCC27853, read-out: P. aeruginosa ATCC 27853 MIC): 8 µg/mL; MIC ([3]; ATCC29213, read-out: S. aureus ATCC 29213 MIC, Table XIII): 4 µg/mL; MIC ([3]; ATCC29213, read-out: S. aureus ATCC 29213 MIC, Table XIV A. Gram-positive bacteria): 2 µg/mL; MIC [5]: 4 µg/mL; MIC [6]: 2 µg/mL; MIC (E. faecium ATCC 700221; ATCC700221, read-out: E. faecium ATCC 700221 MIC): 2 µg/mL; MIC [8]: 8 µg/mL |
| Cc1cccc(C(CCNCCCN)c2cn(C3CCCCC3)c3cc(Br)ccc23)c1.Cl.Cl (stereo not drawn) [Compound 357, N1-(3-(6-bromo-1-cyclohexyl-1H-indol-3-yl)-3-(m-tolyl)propyl)propane-1,3-diamine hydrochloride salt] | 10 µM | 8 µg/mL | 4 µg/mL | 4 µg/mL | 4 µg/mL | 2 µg/mL | 2 µg/mL | 4 µg/mL | 2 µg/mL | 16 µg/mL | 4 µg/mL | 2 µg/mL | 2 µg/mL | 4 µg/mL | 4 µg/mL | 2 µg/mL | 2 µg/mL | 2 µg/mL | 1 µg/mL | 4 µg/mL | – |
| Cc1cccc(C(CCNC2CCC(N)CC2)c2cn(CC3CCCCCC3)c3ccccc23)c1 [Compound 245, (1S,4S)-N1-(3-(1-(cycloheptylmethyl)-1H-indol-3-yl)-3-(m-tolyl)propyl)cyclohexane-1,4-diamine hydrochloride salt] | 13 µM | 8 µg/mL | 2 µg/mL | 2 µg/mL | 4 µg/mL | 8 µg/mL | 8 µg/mL | 4 µg/mL | 2 µg/mL | – | 4 µg/mL | 4 µg/mL | 4 µg/mL | 16 µg/mL | 4 µg/mL | 4 µg/mL | 4 µg/mL | 2 µg/mL | 2 µg/mL | 16 µg/mL | MIC [11]: 1 µg/mL |
| Cc1cccc(-c2ccc3c(c2)c(CCCNCCCN)cn3C2CCCCC2)c1.Cl.Cl [Compound 360, N1-(3-(1-cyclohexyl-5-(m-tolyl)-1H-indol-3-yl)propyl)propane-1,3-diamine hydrochloride salt] | 7.8 µM | 8 µg/mL | 4 µg/mL | 4 µg/mL | 2 µg/mL | 4 µg/mL | 2 µg/mL | 4 µg/mL | 2 µg/mL | 8 µg/mL | 4 µg/mL | 2 µg/mL | 2 µg/mL | 8 µg/mL | 4 µg/mL | 4 µg/mL | 2 µg/mL | 2 µg/mL | 2 µg/mL | 8 µg/mL | – |
| NCCCNCCC(c1cccc(OC(F)(F)F)c1)c1cn(C2CCCCC2)c2ccccc12 (stereo not drawn) [Compound 348, N1-(3-(1-cyclohexyl-1H-indol-3-yl)-3-(3-(trifluoromethoxy)phenyl)propyl)propane-1,3-diaminesalt] | 4.5 µM | 8 µg/mL | 4 µg/mL | 4 µg/mL | 2 µg/mL | 2 µg/mL | 4 µg/mL | 4 µg/mL | 2 µg/mL | 16 µg/mL | 4 µg/mL | 2 µg/mL | 2 µg/mL | 8 µg/mL | 4 µg/mL | 4 µg/mL | 4 µg/mL | 4 µg/mL | 2 µg/mL | 8 µg/mL | – |
| Cc1cccc(-c2ccc3c(c2)c(C2CCCC(NCCCN)C2)cn3C2CCCCC2)c1 (stereo not drawn) [Compound 381, N1-(3-(1-cyclohexyl-5-(m-tolyl)-1H-indol-3-yl)cyclohexyl)propane-1,3-diamine] | 11 µM | 8 µg/mL (≈ 18 µM) | 4 µg/mL (≈ 9.02 µM) | 4 µg/mL (≈ 9.02 µM) | 2 µg/mL (≈ 4.51 µM) | 4 µg/mL (≈ 9.02 µM) | 2 µg/mL (≈ 4.51 µM) | 4 µg/mL (≈ 9.02 µM) | 2 µg/mL (≈ 4.51 µM) | 8 µg/mL (≈ 18 µM) | 4 µg/mL (≈ 9.02 µM) | 2 µg/mL (≈ 4.51 µM) | 2 µg/mL (≈ 4.51 µM) | 4 µg/mL (≈ 9.02 µM) | 2 µg/mL (≈ 4.51 µM) | 2 µg/mL (≈ 4.51 µM) | 2 µg/mL (≈ 4.51 µM) | 2 µg/mL (≈ 4.51 µM) | 1 µg/mL (≈ 2.25 µM) | 8 µg/mL (≈ 18 µM) | – |
| Cc1cccc(C(CCN[C@H]2CC[C@H](N)CC2)c2cn(CC3CCCCC3)c3ccccc23)c1 (stereo partly drawn) [Compound 199, (1R,4R)-N1-(3-(1-(cyclohexylmethyl)-1H-indol-3-yl)-3-(m-tolyl)propyl) cyclohexane-1,4-diamine hydrochloride] | 9.8 µM | 16 µg/mL | 2 µg/mL | 2 µg/mL | 4 µg/mL | 16 µg/mL | 8 µg/mL | 8 µg/mL | 4 µg/mL | – | 4 µg/mL | 32 µg/mL | 8 µg/mL | 32 µg/mL | 4 µg/mL | 8 µg/mL | 8 µg/mL | 4 µg/mL | 4 µg/mL | 64 µg/mL | MIC [11]: 2 µg/mL |
| NC1CCC(NCCC(c2cccc(OC(F)(F)F)c2)c2cn(CC3CCCCC3)c3ccccc23)CC1 [Compound 173, (1S,4S)-N1-(3-(1-(cyclohexylmethyl)-1H-indol-3-yl)-3-(3-(trifluoromethoxy)phenyl)propyl)cyclohexane-1,4-diamine hydrochloride salt] | 3 µM | 8 µg/mL | 1 µg/mL | 2 µg/mL | 4 µg/mL | 4 µg/mL | 4 µg/mL | 4 µg/mL | 2 µg/mL | – | 4 µg/mL | 4 µg/mL | 2 µg/mL | 16 µg/mL | 2 µg/mL | 2 µg/mL | 2 µg/mL | 2 µg/mL | 2 µg/mL | 16 µg/mL | MIC [11]: 2 µg/mL |
| Cc1cccc(-c2ccc3c(c2)c(CCN[C@H]2CC[C@H](N)CC2)cn3CC2CCCCC2)c1 [Compound 225, (1R,4R)-N1-(2-(1-(cyclohexylmethyl)-5-(m-tolyl)-1H-indol-3-yl)ethyl)cyclohexane-1,4-diamine hydrochloride salt] | 11.8 µM | 8 µg/mL | 1 µg/mL | 1 µg/mL | 2 µg/mL | 2 µg/mL | 4 µg/mL | 2 µg/mL | 2 µg/mL | – | 2 µg/mL | 2 µg/mL | 2 µg/mL | 8 µg/mL | 2 µg/mL | 2 µg/mL | 2 µg/mL | 2 µg/mL | 1 µg/mL | 16 µg/mL | MIC [11]: 2 µg/mL |
